Experiments:
[1] = tested on: T-REx-293-NTSR1-GFP cells; experiment: High-throughput human miRNA mimic library screen, image-based per cell green fluorescence (NTSR1-GFP expression); conditions: per cell green fluorescence intensity; for MAD-based z-score: 72 h after transfection plus 24 h tetracycline induction
Description: T-REx-293-NTSR1-GFP cells were screened with a miRNA mimic library (Qiagen) based on Sanger miRBase™ 13.0 and consisting of 875 miRNAs mimics. For transfection, 0.8 pmol of each mimic was spotted to 384 well plate wells (Corning) and 20 μL of serum-free DMEM containing 0.1 μL of Lipofectamine™ RNAiMax (Life Technologies) was then added to each well. This lipid-miRNA mixture was incubated at ambient temperature for 30 min prior to adding 2000 cells in 20 μL of DMEM containing 20% certified FBS (Gibco). Transfected cells were incubated at 37° C. in 5% CO2 for 72 hours and induced with 1 μg/mL tetracycline for 24 hours for NTSR1-GFP expression. Cells were then fixed with 2% paraformaldehyde (Electron Microscopy Sciences), stained with Hoechst™ 33342 (Life Technologies) for 45 minutes and gently washed with PBS. Plates were imaged with an ImageXpress Micro XL™ (Molecular Devices). Total cell number and per cell green fluorescence intensity were calculated using MetaXpress™ software (Molecular Devices) employing the Multi-Wavelength Cell Scoring™ application module. […] A full column of positive control siRNA targeting GFP (GFP-22 siRNA, Qiagen) was also used as on-plate reference for transfection efficiency. The median absolute deviation (MAD)-based z-score was calculated for each sample.

[2] = tested on: HEK-CMV-Luc2-Hygro cells; experiment: Effect of exogenous polyamines on luciferase expression and cell growth; conditions: for effect of higher concentrations on luciferase expression and viable cell: concentrations above the optimum; for concentration with inhibitory effects: culture medium with ruminant serum
Description: FIG. 13: Effect of exogenous polyamines on luciferase expression and cell growth. Two different passages of cells were treated with the indicated concentrations of polyamines and each biological sample was measured in triplicates. Error bars represent SEM.
To further verify this, the impacts of exogenously added polyamines on luciferase expression level and viable cell number were determined.

[3] = tested on: HEK-CMV-Luc2-Hygro cells; experiment: High-throughput genome-wide siRNA screen and validation screen for luciferase expression; format: cell-based, human; conditions: for Luciferase activity (%) / Per cell luciferase yield (%) / Viable cell number (%): Table 6, polyamine pathway gene siRNAs; for Viable cell density (%) / per cell luciferase yield (%): Table 4, negative control = 100%
Method in brief: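 HEK cells with CMV-driven luciferase were reverse-transfected with 0.8 pmol siRNA per well (3 per gene) via RNAiMax and grown 72 h at 37 °C. Duplicate wells read for luciferase (ONE-Glo) and viability (CellTiter-Glo). Values given as % of plate negative-control median with MAD-based z-scores; hits with ≥2 siRNAs at z>3 retested using 3 new siRNAs.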

Compound | Signal relative to negative control (%) [1] | MAD-based z-score [1] | further results
AAACCUGUGUUGUUCAAGAGUC (listed as RNA, chemistry not given here; listed as Homo sapiens) [miR-649, human miRNA mimic] | 150% | 2.0 | 
CUAUACAGUCUACUGUCUUUCC (listed as RNA, chemistry not given here; listed as Homo sapiens) [let-7f-2-3p, human miRNA mimic] | 178% | 3.0 | 
NCCCCN [putrescine] |  |  | increase of luciferase expression ([2]; added to medium at 100 μM): up to 40%; enhanced growth ([2]; addition at 50 μM): 10%; effect of higher concentrations on luciferase expression and viable cell [2]: did not lead to further enhancement of luciferase production
UCCGUCUCAGUUACUUUAUAGC (listed as RNA, chemistry not given here; listed as Homo sapiens) [miR-340-3p, human miRNA mimic] | 159% | 2.3 | 
ACAGAUUCGAUUCUAGGGGAAU (listed as RNA, chemistry not given here; listed as Homo sapiens) [miR-10b-3p, human miRNA mimic] | 162% | 2.4 | 
CAGUGCAAUAGUAUUGUCAAAGC (listed as RNA, chemistry not given here; listed as Homo sapiens) [miR-301a-3p, human miRNA mimic] | 176% | 2.9 | 
AACUGGCCCUCAAAGUCCCGCU (listed as RNA, chemistry not given here; listed as Homo sapiens) [miR-193b-3p, human miRNA mimic] | 166% | 2.5 | 
CUGCCAAUUCCAUAGGUCACAG (listed as RNA, chemistry not given here; listed as Homo sapiens) [miR-192-3p, human miRNA mimic] | 148% | 2.0 | 
UGAGUGCCGGUGCCUGCCCUG (listed as RNA, chemistry not given here; listed as Homo sapiens) [miR-1909-5p, human miRNA mimic] | 169% | 2.6 | 
NCCCCNCCCN [spermidine] |  |  | increase in cell growth ([2]; at 10 μM): 24%; increase in luciferase expression ([2]; at 20 μM): 36%; concentration with inhibitory effects [2]: > 100 µM
UGGUUGUAGUCCGUGCGAGAAUA (listed as RNA, chemistry not given here; listed as Homo sapiens) [miR-1974, human miRNA mimic] | 201% | 3.6 | 
AGGAGGCAGCGCUCUCAGGAC [miR-650] | 163% | 2.5 | 
CUGUGCGUGUGACAGCGGCUGA [miR-210-3p] | 183% | 3.2 | 
CAUCCCUUGCAUGGUGGAGGG (listed as RNA, chemistry not given here; listed as Homo sapiens) [miR-188-5p, human miRNA mimic] | 177% | 2.9 | 
AACUGGCCUACAAAGUCCCAGU (listed as RNA, chemistry not given here; listed as Homo sapiens) [miR-193a-3p, human miRNA mimic] | 156% | 2.3 | 
UGAGGUAGUAGGUUGUAUGGUU (listed as RNA, chemistry not given here; listed as Homo sapiens) [let-7c-5p, human miRNA mimic] | 168% | 2.6 | 
ACUCUUUCCCUGUUGCACUAC (listed as RNA, chemistry not given here; listed as Homo sapiens) [miR-130b-5p, human miRNA mimic] | 178% | 2.9 | 
GCUACUUCACAACACCAGGGCC (listed as RNA, chemistry not given here; listed as Homo sapiens) [miR-138-1-3p, human miRNA mimic] | 167% | 2.5 | 
NCCCNCCCCNCCCN [spermine] |  |  | increase in luciferase expression ([2]; at 10 μM): 16%; effect of higher concentrations on luciferase expression and viable cell [2]: caused reduction in both luciferase expression and viable cell; concentration with inhibitory effects [2]: > 20 µM
GUGUGUGGAAAUGCUUCUGC (listed as RNA, chemistry not given here; listed as Homo sapiens) [miR-147a, human miRNA mimic] | 168% | 2.6 | 
220 (CCGGGAAAGUUUGACUGCATT; chemistry not given here; listed as Homo sapiens) [compound 220] |  |  | Luciferase activity (%) [3]: 101.5%; Per cell luciferase yield (%) [3]: 133.9%; Viable cell number (%) [3]: 75.8%
226 (CACUCGCAGUUAAUAUCAUTT; chemistry not given here; listed as Homo sapiens) [compound 226] |  |  | Luciferase activity (%) [3]: 25.2%; Per cell luciferase yield (%) [3]: 39.0%; Viable cell number (%) [3]: 64.6%
162 (CGAUAUGCUUUUCUACGUUTT; chemistry not given here; listed as Homo sapiens) [compound 162] |  |  | Viable cell density (%) ([3]; primary screen, 72 h): 76.131%; per cell luciferase yield (%) ([3]; primary screen, 72 h): 235.013%
132 (GGACGGAAGCGAAAAUCGATT; chemistry not given here; listed as Homo sapiens) [compound 132] |  |  | Viable cell density (%) ([3]; primary screen, 72 h): 71.473%; per cell luciferase yield (%) ([3]; primary screen, 72 h): 216.209%
118 (UGUGGACUGAGGUACCCAATT; chemistry not given here; listed as Homo sapiens) [compound 118] |  |  | Viable cell density (%) ([3]; primary screen, 72 h): 58.901%; per cell luciferase yield (%) ([3]; primary screen, 72 h): 247.842%
136 (AGGUUACAGAGGACUCAGATT; chemistry not given here; listed as Homo sapiens) [compound 136] |  |  | Viable cell density (%) ([3]; primary screen, 72 h): 49.189%; per cell luciferase yield (%) ([3]; primary screen, 72 h): 299.886%
210 (CAAUGGAACAAUCAAAGUUTT; chemistry not given here; listed as Homo sapiens) [compound 210] |  |  | Viable cell density (%) ([3]; primary screen, 72 h): 89.607%; per cell luciferase yield (%) ([3]; primary screen, 72 h): 180.764%
77 (CAAUGGAACAAUCAAAGUUTT; chemistry not given here; listed as Homo sapiens) [compound 77] |  |  | per_cell ([3]; Table 3, per cell luciferase yield relative to negative control, primary screen, 72 h): 180.8; VIA ([3]; Table 3, viable cell density as % of negative control, primary screen, 72 h): 89.61
219 (CAGAUGGAUUAUUAGCUGATT; chemistry not given here; listed as Homo sapiens) [compound 219] |  |  | Luciferase activity (%) [3]: 94.9%; Per cell luciferase yield (%) [3]: 90.0%; Viable cell number (%) [3]: 105.4%

From US20160319277A1, “METHODS OF IMPROVED PROTEIN PRODUCTION USING MIRNAs AND SIRNAs” (THE JOHNS HOPKINS UNIVERSITY, priority 2015, published 2016)
